Patent US11607417B2, “Uses of celastrol in preventing and/or treating cholestatic liver disease and liver fibrosis” (KUNMING INSTITUTE OF BOTANY, THE CHINESE ACADEMY OF SCIENCES, priority 2017, dated 2023)

Legend:
[1] = tested on: ANIT-induced cholestatic liver injury under SIRT1 inhibition; test: Effect of SIRT1 inhibition (EX527) on celastrol activity in ANIT model (Example 3); assay type: in vivo, C57BL/6 mice
Description: A total of 24 male C57BL/6 mice were divided into four groups: blank group (n=6); model group (n=6); treatment group (n=6); and EX527 group (n=6).
Celastrol was dissolved in a solvent to obtain a celastrol solution at a concentration of 2 mg/mL, wherein the solvent consisted of 1% DMSO, 2% Tween 80, and 97% water (v:v:v). For intragastrical administration, the dosage of celastrol was 10 mg/kg·d. ANIT was dissolved in corn oil to obtain a corn oil solution of ANIT at a concentration of 15 mg/mL, and the dosage of ANIT for intragastrical administration was 75 mg/kg. EX527 was dissolved in corn oil to obtain a corn oil solution of EX527 at a concentration of 2 mg/mL, and the dosage of EX527 for intraperitoneal injection was 10 mg/kg·d.
The EX527 group was simultaneously administrated with the celastrol solution and the EX527 corn oil solution for 5 consecutive days. The treatment group was administrated with the celastrol solution and an equal dosage of corn oil for 5 consecutive days. At the same time, the blank group and the model group were administrated with equal dosages of solvent (1% DMSO, 2% Tween 80 and 97% water (v:v:v)) and corn oil, and the solvent was administrated for 5 consecutive days.
On the 3rd day of administration, ANIT model was established. 4 Hours after administration, the mice in the model group, the treatment group and the EX527 group were respectively intraperitoneally injected with the ANIT corn oil solution at a dosage of 75 mg/kg for single administration to induce cholestatic liver injury, and the blank group was fed with an equal dosage of corn oil. After the model was established on the 3rd day of administration, the treatment group was continuously administrated with celastrol, the EX527 group was continuously administrated with celastrol and EX527, and the blank group and the model group were continuously administrated with the same dosage of solvent. 48 Hours after administration with ANIT, the mice were sacrificed by CO2 anesthesia, and mouse liver samples and plasma samples were taken. The eyeballs of the mice were taken for blood collection. The plasma samples were placed on ice for 1-2 hours, centrifuged at 4000 g for 5 minutes at 4° C., and the supernatants of the plasma samples were taken to determine plasma biochemical indicators, the levels of ALT, AST and ALP.
At the same time, plasma samples were prepared: 10 μL of plasma sample was taken, mixed well with 190 μL of 67% acetonitrile (containing 5 μM internal standard chlorpropamide), centrifuged at 18000 g for 20 minutes at 4° C., and the supernatant was taken for sample injection. The liquid chromatography conditions were as follows: the injection volume was 5 μL; the temperature of column was 45° C.; the flow rate of mobile phase was 0.3 mL/min; the gradient elution was that acetonitrile concentration changed from 2% to 98% during 16 minutes of operation, wherein the mobile phase (water/acetonitrile solution) contained 0.01% formic acid. The elution procedure was as follows: during 0-12th minute, the acetonitrile concentration changed from 2% to 98% at a constant rate; during 12-14th minute, the acetonitrile concentration was maintained at 98%; during 14-14.1th minute, the acetonitrile concentration changed from 98% to 2%; during 14.1-16th minute, the acetonitrile concentration was maintained at 2%. Mass spectrometry conditions were as follows: the temperature of dry gas was 350° C., the pressure of nebulizer was 35 psi, and the voltage of capillary was 3.5 kV.
Part of the collected mouse liver tissue was fixed overnight in formalin and tissue sections were stained with hematoxylin and eosin (H&E).

[2] = tested on: TAA-induced cholestatic liver injury under SIRT1 inhibition; test: Effect of SIRT1 inhibition (EX527) on celastrol activity in TAA model (Example 4); assay type: in vivo, C57BL/6 mice; conditions: TAA model
Description: A total of 24 male C57BL/6 mice were divided into four groups: blank group (n=6);
model group (n=6); treatment group (n=6); EX527 group (n=6).
Celastrol was dissolved in a solvent to obtain a solution of celastrol at a concentration of 2 mg/mL, wherein the solvent consisted of 1% DMSO, 2% Tween, and 97% water (v:v:v). For intragastrical administration, the dosage of celastrol was 10 mg/kg·d. TAA was dissolved in 0.9% NaCl solution to prepare a NaCl solution of TAA at a concentration of 60 mg/mL, and the dosage of TAA for intraperitoneal administration was 300 mg/kg. EX527 was dissolved in corn oil to prepare a corn oil solution of EX527 at a concentration of 2 mg/mL, and the dosage of EX527 for intraperitoneal administration was 10 mg/kg. d.
The EX527 group was simultaneously administered with the celastrol solution and the EX527 corn oil solution for 4 consecutive days. The treatment group was administrated with the celastrol solution and an equal dosage of corn oil for 4 consecutive days. At the same time, the blank group and the model group were administrated with equal dosages of solvent (1% DMSO, 2% Tween 80 and 97% water (v:v:v)) and corn oil, and the solvent was administrated for 4 consecutive days.
On the 4th day, the establishment of TAA model was performed. 1 Hour after administration, the mice in the model group, the treatment group and the EX527 group were intraperitoneally injected with TAA at a dosage of 300 mg/kg to induce cholestatic liver injury. 24 Hours after administration with TAA, the mice were sacrificed by CO2 anesthesia, and plasma samples and liver samples were collected. The eyeballs of the mice were taken for blood collection. The plasma samples were placed on ice for 1-2 hours, centrifuged at 4000 g for 5 minutes at 4° C., and the supernatants of plasma samples were taken to determine the plasma biochemical indicators, the levels of ALT, AST, and ALP.
At the same time, plasma samples were prepared: 10 μL of plasma sample was mixed with 190 μL of 67% acetonitrile (containing 5 μM internal standard chlorpropamide), centrifuged at 18000 g for 20 minutes at 4° C., and the supernatant was taken for sample injection. The liquid chromatography conditions were as follows: the volume of injection was 5 μL; the temperature of column was 45° C.; the flow rate of mobile phase was 0.3 mL/min; the gradient elution was that acetonitrile concentration changed from 2% to 98% during 16 minutes of operation, wherein the mobile phase (water/acetonitrile solution) contained 0.01% formic acid. The elution procedure was as follows: during 0-12th minute, the acetonitrile concentration changed from 2% to 98% at a constant rate; during 12-14th minute, the acetonitrile concentration was maintained at 98%; during 14-14.1th minute, the acetonitrile concentration changed from 98% to 2%; during 14.1-16th minute, the acetonitrile concentration was maintained at 2%. Mass spectrometry conditions were as follows: the temperature of dry gas was 350° C., the pressure of nebulizer was 35 psi, and the voltage of capillary was 3.5 kV.
Part of the collected mouse liver tissue was fixed overnight in formalin, and tissue sections were stained with hematoxylin and eosin (H&E).

[3] = EX527 group: celastrol 10 mg/kg·d + EX527 10 mg/kg·d i.p., P<0.05, FIG. 3E
[4] = EX527 group: celastrol 10 mg/kg·d + EX527 10 mg/kg·d i.p., P<0.001, FIG. 4E

With `NC(=O)C1CCCc2c1[nH]c1ccc(Cl)cc21` (centres unmarked) [EX527, reference compound] the “Levels of bile acids in plasma vs treatment group” value ([1]; CA, TβMCA/TαMCA and THDCA/TUDCA, EX527 group: celastrol + EX527 10 mg/kg·d i.p., P<0.05, FIG. 3F) was “significantly higher”, the “H&E staining of mouse liver tissue” value ([1]; EX527 group: celastrol 10 mg/kg·d + EX527 10 mg/kg·d i.p., FIG. 3D) was “a severe inflammatory infiltration and a periportal hemorrhage also occurred” and the “ALT level in plasma vs treatment group” value [1, 3] was “significantly higher”. For the same molecule, the “AST level in plasma vs treatment group” value [1, 3] was “significantly higher”, the “Levels of bile acids in plasma vs treatment group” value ([2]; DCA, TβMCA/TαMCA, TCA and TDCA, EX527 group: celastrol + EX527 10 mg/kg·d i.p., P<0.05, FIG. 4F) was “significantly higher” and the “H&E staining of mouse liver tissue” value ([2]; EX527 group: celastrol 10 mg/kg·d + EX527 10 mg/kg·d i.p., FIG. 4D) was “a severe necrosis of liver cells also occurred”. For the same molecule, the “ALT level in plasma vs treatment group” value [2, 4] was “significantly higher” and the “AST level in plasma vs treatment group” value [2, 4] was “significantly higher”.
